Values joined by “and” are separate entries in the source; they are usually repeats but may differ in a detail not shown here. Equal entries are not always repeated. Inconclusive results and toxic doses are left out.
Tested on: BDF1 mice, P388 leukemia ip, median survival T/C
Experiment: NCI In Vivo Anticancer Drug Screen. Data for tumor model P388 Leukemia (intraperitoneal) in B6D2F1 (BDF1) mice
Settings: endpoint: median survival time, higher = longer survival
Method in brief: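 Vehicle-dosed animals serve as the reference; survival of compound-dosed, tumour-implanted mice is divided by it.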

[1] = dose: 50.0 mg/kg/injection, schedule: Q01DX009 (ip), vehicle: saline with Tween-80
[2] = dose: 100.0 mg/kg/injection, schedule: Q01DX009 (ip), vehicle: saline with Tween-80

Q: How did the T/C (dose: 5.5 mg/kg/injection, schedule: Q04DX003 (ip), vehicle: Klucel (hydroxypropylcellulose) (HPC)) turn out when O=NN(CCF)C(=O)NC12CC3CC(CC(C3)C1)C2 was run?
A: Its T/C is 104 % of control.

Q: What about the T/C (dose: 11.0 mg/kg/injection, schedule: Q04DX003 (ip), vehicle: Klucel (hydroxypropylcellulose) (HPC)) of the same compound?
A: The T/C was 112 % of control.

Q: And the T/C (dose: 12.0 mg/kg/injection, schedule: Q01DX009 (ip), vehicle: Klucel (hydroxypropylcellulose) (HPC))?
A: The T/C was 158 % of control.

Q: And the T/C (dose: 22.0 mg/kg/injection, schedule: Q04DX003 (ip), vehicle: Klucel (hydroxypropylcellulose) (HPC))?
A: Its T/C is 162 % of control and 180 % of control.

Q: What about the T/C (dose: 25.0 mg/kg/injection, schedule: Q01DX009 (ip), vehicle: Klucel (hydroxypropylcellulose) (HPC)) of the same compound?
A: Its T/C is 250 % of control.

Q: What about the T/C (dose: 33.0 mg/kg/injection, schedule: Q04DX003 (ip), vehicle: Klucel (hydroxypropylcellulose) (HPC)) of the same compound?
A: Its T/C is 240 % of control.

Q: And the T/C (dose: 50.0 mg/kg/injection, schedule: Q04DX003 (ip), vehicle: Klucel (hydroxypropylcellulose) (HPC))?
A: Its T/C is 245 % of control and 300 % of control.

Q: For O=C(CCCCC(=O)Nc1ccc(C2=NCCN2)cc1)Nc1ccc(C2=NCCN2)cc1, which T/C (dose: 3.6 mg/kg/injection, schedule: Q01DX009 (ip), vehicle: Klucel (hydroxypropylcellulose) (HPC)) is on record?
A: Its T/C is 104 % of control.

Q: What about the T/C (dose: 5.4 mg/kg/injection, schedule: Q01DX009 (ip), vehicle: Klucel (hydroxypropylcellulose) (HPC)) of the same compound?
A: The T/C was 100 % of control.

Q: And the T/C (dose: 65.0 mg/kg/injection, schedule: Q01DX009 (ip), vehicle: Klucel (hydroxypropylcellulose) (HPC))?
A: The T/C was 168 % of control.

Q: And the T/C (dose: 100.0 mg/kg/injection, schedule: Q01DX009 (ip), vehicle: Klucel (hydroxypropylcellulose) (HPC))?
A: Its T/C is 190 % of control.

Q: What about the T/C (dose: 100.0 mg/kg/injection, schedule: Q04DX003 (ip), vehicle: other) of the same compound?
A: The T/C was 111 % of control.

Q: And the T/C (dose: 132.0 mg/kg/injection, schedule: Q01DX009 (ip), vehicle: Klucel (hydroxypropylcellulose) (HPC))?
A: Its T/C is 204 % of control.

Q: And the T/C (dose: 200.0 mg/kg/injection, schedule: Q01DX009 (ip), vehicle: Klucel (hydroxypropylcellulose) (HPC))?
A: The T/C was 225 % of control and 172 % of control and 209 % of control.

Q: What about the T/C (dose: 200.0 mg/kg/injection, schedule: Q04DX003 (ip), vehicle: other) of the same compound?
A: Its T/C is 116 % of control.

Q: What about the T/C (dose: 264.0 mg/kg/injection, schedule: Q04DX003 (ip), vehicle: Klucel (hydroxypropylcellulose) (HPC)) of the same compound?
A: Its T/C is 180 % of control.

Q: And the T/C (dose: 300.0 mg/kg/injection, schedule: Q01DX009 (ip), vehicle: Klucel (hydroxypropylcellulose) (HPC))?
A: Its T/C is 257 % of control and 213 % of control.

Q: And the T/C (dose: 400.0 mg/kg/injection, schedule: Q01DX009 (ip), vehicle: Klucel (hydroxypropylcellulose) (HPC))?
A: Its T/C is 100 % of control.

Q: What about the T/C (dose: 400.0 mg/kg/injection, schedule: Q04DX003 (ip), vehicle: Klucel (hydroxypropylcellulose) (HPC)) of the same compound?
A: The T/C was 225 % of control and 168 % of control.

Q: And the T/C (dose: 400.0 mg/kg/injection, schedule: Q04DX003 (ip), vehicle: other)?
A: Its T/C is 161 % of control.

Q: How did the T/C (dose: 100.0 mg/kg/injection, schedule: Q04DX003 (ip), vehicle: saline with Tween-80) turn out when CCCCCCCNC(=O)Nc1cc([N+](=O)[O-])ccc1C was run?
A: Its T/C is 100 % of control.

Q: What about the T/C (dose: 200.0 mg/kg/injection, schedule: Q04DX003 (ip), vehicle: saline with Tween-80) of the same compound?
A: Its T/C is 100 % of control.

Q: What about the T/C (dose: 400.0 mg/kg/injection, schedule: Q04DX003 (ip), vehicle: saline with Tween-80) of the same compound?
A: Its T/C is 104 % of control.

Q: What does the source list for O=C1C(=O)c2ccccc2-c2ccccc21?
A: T/C (dose: 0.75 mg/kg/injection, schedule: Q01DX009 (ip), vehicle: carboxymethylcellulose (CMC)): 100 % of control; T/C (dose: 1.5 mg/kg/injection, schedule: Q01DX009 (ip), vehicle: carboxymethylcellulose (CMC)): 109 % of control; T/C (dose: 3.0 mg/kg/injection, schedule: Q01DX009 (ip), vehicle: carboxymethylcellulose (CMC)): 95 % of control; T/C (dose: 6.0 mg/kg/injection, schedule: Q01DX009 (ip), vehicle: carboxymethylcellulose (CMC)): 114 % of control

Q: What does the source list for CC(C#N)Oc1cccc2ccccc12 (stereo not given)?
A: T/C (dose: 2.0 mg/kg/injection, schedule: Q01DX009 (ip), vehicle: DMSO): 96 % of control; T/C (dose: 3.0 mg/kg/injection, schedule: Q01DX009 (ip), vehicle: DMSO): 115 % of control; T/C (dose: 4.5 mg/kg/injection, schedule: Q01DX009 (ip), vehicle: DMSO): 110 % of control; T/C (dose: 6.0 mg/kg/injection, schedule: Q01DX009 (ip), vehicle: DMSO): 110 % of control; T/C (dose: 12.0 mg/kg/injection, schedule: Q01DX009 (ip), vehicle: DMSO): 120 % of control; T/C (dose: 12.5 mg/kg/injection, schedule: Q01DX009 (ip), vehicle: DMSO): 88 % of control; T/C (dose: 25.0 mg/kg/injection, schedule: Q01DX009 (ip), vehicle: DMSO): 88 % of control; T/C (dose: 100.0 mg/kg/injection, schedule: Q04DX003 (ip), vehicle: DMSO): 100 % of control

Q: With CC(C)S(=O)(=O)/C(Cl)=C(/Cl)C(Cl)=C(Cl)Cl as the compound, how does the T/C (dose: 13.0 mg/kg/injection, schedule: Q01DX009 (ip), vehicle: Klucel (hydroxypropylcellulose) (HPC)) read?
A: Its T/C is 100 % of control.

Q: And the T/C (dose: 20.0 mg/kg/injection, schedule: Q01DX009 (ip), vehicle: Klucel (hydroxypropylcellulose) (HPC))?
A: Its T/C is 100 % of control.

Q: What about the T/C (dose: 30.0 mg/kg/injection, schedule: Q01DX009 (ip), vehicle: Klucel (hydroxypropylcellulose) (HPC)) of the same compound?
A: The T/C was 95 % of control.

Q: With O=C(O)c1ccc(Oc2nc3ccccc3s2)cc1 as the compound, how does the T/C (dose: 25.0 mg/kg/injection, schedule: Q01DX009 (ip), vehicle: saline with Tween-80) read?
A: The T/C was 95 % of control.

Q: And the T/C [1]?
A: Its T/C is 95 % of control.

Q: What about the T/C [2] of the same compound?
A: The T/C was 104 % of control.

Q: What does the source list for Cc1ccc2ccccc2c1NCCC(=O)O?
A: T/C (dose: 100.0 mg/kg/injection, schedule: Q01DX001 (ip), vehicle: Klucel (hydroxypropylcellulose) (HPC)): 103 % of control; T/C (dose: 200.0 mg/kg/injection, schedule: Q01DX001 (ip), vehicle: Klucel (hydroxypropylcellulose) (HPC)): 96 % of control; T/C (dose: 400.0 mg/kg/injection, schedule: Q01DX001 (ip), vehicle: Klucel (hydroxypropylcellulose) (HPC)): 100 % of control

Q: Which T/C (dose: 12.5 mg/kg/injection, schedule: Q01DX009 (ip), vehicle: water) does the source give for CN(C)CCNC1=CC(=O)c2ccccc2C1=O here?
A: The T/C was 91 % of control.

Q: What about the T/C (dose: 12.5 mg/kg/injection, schedule: Q04DX003 (ip), vehicle: water) of the same compound?
A: Its T/C is 107 % of control.

Q: What about the T/C (dose: 25.0 mg/kg/injection, schedule: Q01DX009 (ip), vehicle: water) of the same compound?
A: Its T/C is 102 % of control.

Q: And the T/C (dose: 25.0 mg/kg/injection, schedule: Q04DX003 (ip), vehicle: water)?
A: The T/C was 100 % of control.

Q: What about the T/C (dose: 50.0 mg/kg/injection, schedule: Q01DX009 (ip), vehicle: water) of the same compound?
A: The T/C was 100 % of control.

Q: What about the T/C (dose: 50.0 mg/kg/injection, schedule: Q04DX003 (ip), vehicle: water) of the same compound?
A: Its T/C is 100 % of control.

Q: And the T/C (dose: 100.0 mg/kg/injection, schedule: Q01DX009 (ip), vehicle: water)?
A: Its T/C is 98 % of control.

Q: And the T/C (dose: 100.0 mg/kg/injection, schedule: Q04DX003 (ip), vehicle: water)?
A: Its T/C is 98 % of control.

Q: And the T/C (dose: 200.0 mg/kg/injection, schedule: Q01DX009 (ip), vehicle: water)?
A: The T/C was 96 % of control and 105 % of control.

Q: Which T/C (dose: 0.25 mg/kg/injection, schedule: Q01DX009 (ip), vehicle: Klucel (hydroxypropylcellulose) (HPC)) does the source give for O=C(O)CCCc1ccc(N(CCCl)CCCl)cc1 here?
A: The T/C was 123 % of control.

Q: What about the T/C (dose: 0.5 mg/kg/injection, schedule: Q01DX009 (ip), vehicle: Klucel (hydroxypropylcellulose) (HPC)) of the same compound?
A: Its T/C is 105 % of control.

Q: And the T/C (dose: 1.5 mg/kg/injection, schedule: Q01DX009 (ip), vehicle: Klucel (hydroxypropylcellulose) (HPC))?
A: The T/C was 171 % of control.

Q: And the T/C (dose: 2.0 mg/kg/injection, schedule: Q01DX009 (ip), vehicle: Klucel (hydroxypropylcellulose) (HPC))?
A: The T/C was 165 % of control.

Q: And the T/C (dose: 3.0 mg/kg/injection, schedule: Q01DX009 (ip), vehicle: saline)?
A: Its T/C is 99 % of control and 100 % of control.

Q: What about the T/C (dose: 3.13 mg/kg/injection, schedule: Q01DX010 (ip), vehicle: saline) of the same compound?
A: Its T/C is 100 % of control.

Q: What about the T/C (dose: 6.0 mg/kg/injection, schedule: Q01DX009 (ip), vehicle: saline) of the same compound?
A: The T/C was 105 % of control.

Q: And the T/C (dose: 12.0 mg/kg/injection, schedule: Q01DX009 (ip), vehicle: saline)?
A: Its T/C is 122 % of control.

Q: What about the T/C (dose: 12.5 mg/kg/injection, schedule: Q01DX010 (ip), vehicle: saline) of the same compound?
A: Its T/C is 172 % of control.

Q: What about the T/C (dose: 24.0 mg/kg/injection, schedule: Q01DX009 (ip), vehicle: saline) of the same compound?
A: The T/C was 88 % of control.

Q: COc1cc([N+](=O)[O-])cc(C=O)c1OC(=O)c1ccccc1 was tested. Which T/C [1] did it give?
A: The T/C was 109 % of control.

Q: What about the T/C [2] of the same compound?
A: Its T/C is 123 % of control.

Q: What does the source list for CC(=O)NC(C)C(C)C (stereo not given)?
A: T/C (dose: 100.0 mg/kg/injection, schedule: Q04DX003 (ip), vehicle: saline): 100 % of control; T/C (dose: 200.0 mg/kg/injection, schedule: Q04DX003 (ip), vehicle: saline): 95 % of control; T/C (dose: 400.0 mg/kg/injection, schedule: Q04DX003 (ip), vehicle: saline): 100 % of control

Q: Which results are given for CCOc1ccc(Nc2c3ccccc3nc3ccccc23)cc1?
A: T/C (dose: 0.39 mg/kg/injection, schedule: Q01DX009 (ip), vehicle: Klucel (hydroxypropylcellulose) (HPC)): 110 % of control; T/C (dose: 0.78 mg/kg/injection, schedule: Q01DX009 (ip), vehicle: Klucel (hydroxypropylcellulose) (HPC)): 114 % of control; T/C (dose: 1.56 mg/kg/injection, schedule: Q01DX009 (ip), vehicle: Klucel (hydroxypropylcellulose) (HPC)): 96 % of control; T/C (dose: 50.0 mg/kg/injection, schedule: Q01DX009 (ip), vehicle: Klucel (hydroxypropylcellulose) (HPC)): 159 % of control

Q: For O=[N+]([O-])c1ccc(N2[C@@H]3C4CCC([C@@H]32)C42OCCO2)cc1, which T/C (dose: 50.0 mg/kg/injection, schedule: Q01DX001 (ip), vehicle: saline with Tween-80) is on record?
A: Its T/C is 93 % of control.

Q: And the T/C (dose: 100.0 mg/kg/injection, schedule: Q01DX001 (ip), vehicle: saline with Tween-80)?
A: Its T/C is 118 % of control.

Q: And the T/C (dose: 200.0 mg/kg/injection, schedule: Q01DX001 (ip), vehicle: saline with Tween-80)?
A: Its T/C is 93 % of control.
